Assay [1] relates to different tumor cell lines (HeLa, Hec1a, SKOV3, MCF-7, Hey, SKBR3). The following applies: lipids mixed with DOPE; all tested cell lines; versus Transfectam, Lipofectamine and DC-Chol; GFP and beta-galactosidase reporter plasmids; FIGS. 5 and 6. An excerpt: In general: The cell lines used HeLa, Hec1a, SKOV3, MCF-7, Hey, SKBR3, T47D, 293 were cultivated according to standard ATCC conditions. Commercial transfection reagents Transfectam®, Lipofectamine™ und Superfect were used according to the manufacturer's instructions. DC-Chol was synthesized as described previously [L. Huang et al. Biochem. Biophys. Res. Commun. 179(1) (1991) 280-285] and was formulated with DOPE for the transfection experiments.
The day before the transfection 40-50000 cells were seeded per well in a 24-well cell culture plate (appr. 70% confluence). For the preparation of the complexes 3 μl (for SKBR3, MCF-7, Hey) respectively 6 μl (for HeLa, Hec1a, SKOV3) of the aqueous lipid reagent (30 mol % lipid #2 respectively #7 respectively #9; 70 mol % DOPE) were added to a solution of each 2 μg of the plasmid-DNA (pEGFP-N1; Clontech Laboratories, Inc; Katalog-Nr. 6085-1) in 300 μl of fcs-free medium and were incubated at room temperature for 30 min. Shortly before the transfection the cell culture medium was replaced with 700 μl fresh medium (14.3% fcs). After addition of the lipid-DNA complexes and incubation of the cells for 48 hours the percentage of GFP expressing fluorescent cells was determined by FACS-analysis. For this the cells were washed with PBS and were separated by trypsination and subsequent centrifugation. The thus obtained cell pellet was resuspended in 500 μl PBS and the percentage of fluorescent cells was determined by FACS-analysis using a FACScan device (Becton Dickinson).

Assay [2] has as its system breast tumor cells MCF7. The following applies: FIG. 9; for transfection efficiency with pEGFP-N1-plasmid compared with Transfectam: mixtures with 70 mol % DOPE in ethanolic solutions, MCF7; for percentage of transfected cells after pre-complexing of the DNA with protamine sulfate: mixtures with 70 mol % DOPE, ethanolic, DNA pre-complexed with protamine sulfate versus not. As for the experimental part: The day before the transfection 40-50000 cells were seeded per well in a 24-well cell culture plate (appr. 70% confluence). For the preparation of the complexes 4 μl of the ethanolic lipid reagent (30 mol % lipid #2 respectively #7; 70 mol % DOPE) were added to a solution of each 2 μg of the plasmid-DNA (pEGFP-N1; Clontech Laboratories, Inc; catalog-nr. 6085-1) in 300 μl fcs-free medium and were incubated at room temperature for 30 min. For the transfection in the presence of protamine sulfate 2 μg plasmid-DNA was pre-complexed with 2 μg protamine sulfate in 300 μl serum free medium for 10 min whereupon 4 μl of the lipid reagent were added. Shortly before the transfection the cell culture medium was replaced with 700 μl fresh medium (14.3% fcs). After addition of the lipid-DNA complexes and incubation of the cells for 48 hours the percentage of GFP expressing fluorescent cells was determined by FACS-analysis as described above.

Assay [3] relates to eucaryotic cells. The following applies: 10-100 μM chloroquine added to the cell culture medium; cited from earlier work.

Regarding `CCN(CC)CCN(CCNc1ccnc2cc(Cl)ccc12)C(=O)O[C@H]1CC[C@@]2(C)C(=CC[C@H]3[C@@H]4CC[C@H]([C@H](C)CCCC(C)C)[C@@]4(C)CC[C@@H]32)C1.Cl` [#2, 7-chloro-4-[N^1-(N^4-carboxycholesteryl)-(N^7-diethyl)-1,4,7-triaza-heptyl]-quinoline Hydrochloride], in assay [1], the “transfection efficiency compared with known lipid formulations” value is “higher efficiency”. Also, in assay [2], the “transfection efficiency with pEGFP-N1-plasmid compared with Transfectam” value is listed as “significantly more efficient” and the “percentage of transfected cells after pre-complexing of the DNA with protamine sulfate” value is “significant increase”.
The like results for `CC(C)CCC[C@@H](C)[C@H]1CC[C@H]2[C@@H]3CC=C4C[C@@H](OC(=O)N(CCCNc5ccnc6cc(Cl)ccc56)CCN(C)C)CC[C@]4(C)[C@H]3CC[C@]12C.Cl` [#7, 7-chloro-4-[N^1-(N^5-carboxycholesteryl)-(N^8-dimethyl)-1,5,8-triaza-octyl]-quinoline Hydrochloride] were, in that order, “higher efficiency”, “significantly more efficient” and “significant increase”.
`CCCCCCCC/C=C\CCCCCCCC(=O)OC[C@@H](CN(CCCNc1ccnc2cc(Cl)ccc12)CCN(C)C)OC(=O)CCCCCCC/C=C\CCCCCCCC` [#9, 7-chloro-4-[N^1-(N^5-(2(R),3-dioleoyloxy)propyl)-(N^8-dimethyl)-1,5,8-triaza-octyl]-quinoline]: the “transfection efficiency compared with known lipid formulations” value in assay [1] is recorded as “higher efficiency”.
With `CCN(CC)CCCC(C)Nc1ccnc2cc(Cl)ccc12` (centres unmarked) [chloroquine], in assay [3], the “effect on the efficiency of the cationic amphiphiles” value is “significantly increases the efficiency”.

The record behind these values is patent publication US20030109699A1, “Amphiphilic quinolylpolyamines as transfer agents for biologically active macromolecules” (priority 1999, published 2003).
